Data set [1] relates to NCI-H460 human lung carcinoma. Nature of the data set: Tumor growth evaluation, NCI-H460 s.c. xenograft. In kind it is in vivo, CD-1 nude mice. The protocol:
NCI-H460 human lung carcinoma from in vitro cell cultures were injected s.c. (3×10^6 cells/100 μl/mouse) into the right flank of CD-1 nude mice. Four days after tumor implant mice started to be treated with ST2493 at the dose of 50 mg/kg intraperitoneally according to the following schedule: qdx5/w/3wks. CA-4P (combretastatin A-4 P) at the same dose was used as positive control.
All animals were weighed during the whole treatment period, in order to adjust the volume of drug administration and to record the percent of body weight loss due in the course of treatment.
In a following experiment with the same animal model ST2493 (prodrug of ST2303) was administered intravenously at the doses of 25 and 50 mg/kg according to a q2dx6 schedule.
Tumor growth was assessed by twice a week measurements of the shortest (width) and the longest (length) diameters of each tumor by a Vernier caliper and the antitumor activity was evaluated in terms of percent inhibition of tumor growth. Tumor volume (or tumor weight*) was calculated according to the following formula using caliper measurements: tumor volume or TV (mm^3)=[length (mm)×width (mm)^2]/2.
Tumor volume inhibition percent (% TVI) was calculated according to the equation: 100−[(mean tumor volume of treated group/mean tumor volume of control group)×100]. A P value≦0.05 was considered statistically significant.

Data set [2] has as its system bovine microvascular endothelial cells (BMEC). Nature of the data set: Cytotoxicity assay (sulforhodamine B), BMEC. The format is cell-based. The conditions noted are these: Bos taurus, Endothelial cell, 24 h exposure, then 48 h drug-free. The protocol:
(§1) Primary cultures of bovine microvascular endothelial cells (BMEC) were obtained from bovine adrenal glands as described by Folkman (Folkman J., Haudenschild C. C., Zetter B. R. Long-term culture of capillary endothelial cells. Proc. Natl. Acad. Sci. USA, 1979 October; 76(10): 5217-21). BMEC were maintained in DMEM supplemented with 20% fetal calf serum (FCS), 50 units/ml heparin (Sigma, St. Louis, Mo.), 50 μg/ml bovine brain extract, 100 units/ml gentamycin. HUVEC (Human umbilical vein endothelial cells) were obtained from BioWhittaker (Walkersville, Md.) and grown in EGM-2 (BioWhittaker). EA-hy 926 cell line, a HUVEC-adenocarcinoma immortalized cell hybrid, was obtained from the Dipartimento di Scienze Biomediche e Oncologia Umana (Universita di Bari, Italy), and cultured in DMEM supplemented with 10% serum and 50 μg/ml gentamycin sulfate.
(§2) To test the effects of ST2303 on growth, cells were seeded in 96-well tissue culture plates (Corning) at approximately 10% confluence and were allowed to attach and recover for at least 24 h. Varying concentrations of the compound were then added to each well. […] The number of surviving cells was then determined by staining with sulforhodamine B as described by Skehan et al. (1990). ST2303 inhibitory concentration 50 (IC50)±SD on different cell lines, evaluated by “ALLFIT” computer program, are shown in Table 1.

The subject of data set [3] is HUVEC (Human umbilical vein endothelial cells). Put plainly: Cytotoxicity assay (sulforhodamine B), HUVEC. The conditions noted are these: 24 h exposure, then 48 h drug-free. In kind it is cell-based. The protocol:
as §1, §2

The test system of the next data set is EA-hy 926 cell line. Nature of the data set: Cytotoxicity assay (sulforhodamine B), EA-hy 926. The format is cell-based. Particulars: Homo sapiens, EAHY.926, 24 h exposure, then 48 h drug-free. The protocol: as §1, §2
In data set [4] the test system is NCIH460 human lung carcinoma. Put plainly: Cytotoxicity assay (sulforhodamine B), NCI-H460. In kind it is cell-based. The conditions noted are these: 24 h exposure, then 48 h drug-free. Here is the method:
(§3) The following cell lines were purchased from ATCC and cultured according to manufacturer's instructions: NCIH460 human lung carcinoma, MeWo human melanoma, MES-SA human uterine sarcoma and HCT116 human colorectal carcinoma. HT-29 human colon adenocarcinoma cells and A2780 human ovarian carcinoma, obtained from Istituto Nazionale Tumori (Milan, Italy), were grown in RPMI 1640 (GIBCO) containing 10% fetal bovine serum (GIBCO) and 50 μg/ml gentamycin sulfate.
(§4) To test the effects of ST2303 on growth, cells were seeded in 96-well tissue culture plates (Corning) at approximately 10% confluence and were allowed to attach and recover for at least 24 h. Varying concentrations of the compound were then added to each well. The plates were incubated for 24 h and then washed before incubating them for additional 48 h. The number of surviving cells was then determined by staining with sulforhodamine B as described by Skehan et al. (1990). ST2303 inhibitory concentration 50 (IC50)±SD on different cell lines, evaluated by “ALLFIT” computer program, are shown in Table 1.

Data set [5] relates to HT-29 human colon adenocarcinoma cells. Nature of the data set: Cytotoxicity assay (sulforhodamine B), HT-29. The format is cell-based. Particulars: HT29, 24 h exposure, then 48 h drug-free. The protocol:
as §3, §4

The subject of another data set is MeWo human melanoma. Nature of the data set: Cytotoxicity assay (sulforhodamine B), MeWo. In kind it is cell-based. Particulars: 24 h exposure, then 48 h drug-free. Here is the method:
as §3, §4

The test system of data set [6] is A2780 human ovarian carcinoma. Put plainly: Cytotoxicity assay (sulforhodamine B), A2780. In kind it is cell-based. The conditions noted are these: 24 h exposure, then 48 h drug-free. The protocol:
as §3, §4

Data set [7] relates to MES-SA human uterine sarcoma. Put plainly: Cytotoxicity assay (sulforhodamine B), MES-SA. The format is cell-based. The conditions noted are these: 24 h exposure, then 48 h drug-free. Here is the method:
as §3, §4

The test system of data set [8] is HCT116 human colorectal carcinoma. Put plainly: Cytotoxicity assay (sulforhodamine B), HCT116. The format is cell-based. The conditions noted are these: HCT 116, 24 h exposure, then 48 h drug-free. Here is the method:
as §3, §4

Another data set relates to tubulin. Nature of the data set: Tubulin polymerisation inhibition test (CytoDINAMIX Screen, turbidity at 340 nm). The format is biochemical. Particulars: tubulin 3 mg/ml, 37° C.; mean of 3 independent determinations; read-out: IC50 ± SE, tubulin polymerisation. The protocol: The tubulin polymerisation test was performed by CytoDINAMIX Screen™. Turbidity from tubulin polimerisation was measured with a Victor2 from Wallac. HTS-tubulin was diluted to 3 mg/ml in buffer PEM [100 mM PIPES (pH 6.9), 1 mM EGTA and 1 mM MgCl2] containing 1 mM GTP (GPEM) plus 5% glycerol, and kept on ice. Aliquots of this solution was then placed at 37° C. in presence of taxol (3 μM) or colcemid (3 μM) or combretastatin (ST1986) or compounds to examinate, and absorbance was measured at 340 nm. The IC50 values were determined by non-linear regression analysis using “Prism GraphPad” software.
The value indicated in Table 3 is the mean of 3 independent determinations.

[9] abbreviates: i.p. 50 mg/kg, qdx5/w/3wks, day 11 after cell injection.
Where [10] appears, read: i.p. 50 mg/kg, qdx5/w/3wks, day 28 after cell injection.

Marks after values point to notes of the source that are not given here.

Take `COc1ccc(/C(F)=C(/F)c2cc(OC)c(OC)c(OC)c2)cc1OP(=O)([O-])[O-].[Na+].[Na+]` [ST2493, (Z)-1,2-difluoro-1-(3,4,5-trimethoxyphenyl)-2-(3-hydroxy-4-methoxyphenyl)ethene o-disodium phosphate]: the “TVI compared to vehicle (in words)” value in data set [1] (both intraperitoneal and intravenous administration) is on record as “significant TVI”. Besides, the “% BWL (body weight loss)” value in data set [1] (i.p. 50 mg/kg, qdx5/w/3wks) was 8%; in data set [1] (i.v. 25 mg/kg, q2dx6), 8%; in data set [1] (i.v. 50 mg/kg, q2dx6), 8%. For the same compound, the mortality in [1] (i.p. 50 mg/kg, qdx5/w/3wks) was 0/8; in data set [1] (i.v. 25 mg/kg, q2dx6), 0/8; in data set [1] (i.v. 50 mg/kg, q2dx6), 0/8. Further, the “% TVI (tumor volume inhibition)” value in data set [1] (setting [9]) was 68** %; in [1] (setting [10]), 73*** %; in [1] (i.v. 25 mg/kg, q2dx6, day 11 after cell injection), 63** %; in data set [1] (i.v. 25 mg/kg, q2dx6, day 28 after cell injection), 64*** %; in data set [1] (i.v. 50 mg/kg, q2dx6, day 11 after cell injection) it was 73** %; in data set [1] (i.v. 50 mg/kg, q2dx6, day 28 after cell injection) it was 73** %. Also, the “TVI compared with the same dose of CA-4P (in words)” value in data set [1] (intraperitoneal, 50 mg/kg, p=0.0095 at day 11, p=0.0180 at day 28, Mann Whitney's test) is listed as “significant difference”.
As to `COc1ccc(/C=C\c2cc(OC)c(OC)c(OC)c2)cc1OP(=O)(O)O` [CA-4P, combretastatin A-4 P, reference compound], in data set [1] (i.p. 50 mg/kg, qdx5/w/3wks), the “% BWL (body weight loss)” value is 3% and the mortality is on record as 0/8. Also, the “% TVI (tumor volume inhibition)” value in data set [1] (setting [9]) is on record as 47** %. Also, in data set [1] (setting [10]), the “% TVI (tumor volume inhibition)” value is on record as 61*** %.
Turning to `COc1ccc(/C(F)=C(/F)c2cc(OC)c(OC)c(OC)c2)cc1O` [ST2303, (Z)-1,2-difluoro-1-(3,4,5 trimethoxyphenyl)-2-(3-hydroxy-4-methoxyphenyl)ethene], the IC50 in [2] was 1 ± 0.5 nM; in data set [3] it was 1 ± 0.3 nM; with EA-hy 926 cell line, 5 ± 0.5 nM; in data set [4] it was 3 ± 0.005 nM; in [5] it was more than 200 nM; in the data set with MeWo human melanoma it was 3.6 ± 0.0003 nM. In addition, the IC50 is 3 ± 0.001 nM in [6], less than 1 nM in [7], 2.2 ± 0.05 nM in [8] and 7700 ± 120 nM in the data set on tubulin.

These data come from patent publication US7572778B2, “Fluorocombretastatin and derivatives thereof” (Sigma-Tau Industrie Farmaceutiche Riunite S.p.A., priority 2003, dated 2009).
